Experiments:
Assay in all cases: KINOMEscan competition binding
Settings in all cases: compound 10.0 µM
IRAK3 (human) = IRAK3 (human) (UniProt Q9Y616)
SRMS (human) = SRMS (human) (UniProt Q9H3Y6)
FYN (human) = FYN (human) (UniProt P06241)
PTK6 (human) = PTK6 (human) (UniProt Q13882)
ACVR2B (human) = ACVR2B (human) (UniProt Q13705)
[1] = tested on: FGFR3 (human), P22607 [G697C]
CDK15 (human) = CDK15 (human) (UniProt Q96Q40)
[2] = tested on: PIK3CA (human), P42336 [M1043I]
FGFR1 (human) = FGFR1 (human) (UniProt P11362)
TNK1 (human) = TNK1 (human) (UniProt Q13470)
WEE2 (human) = WEE2 (human) (UniProt P0C1S8)
AKT2 (human) = AKT2 (human) (UniProt P31751)
MYO3B (human) = MYO3B (human) (UniProt Q8WXR4)
TLK1 (human) = TLK1 (human) (UniProt Q9UKI8)
MINK1 (human) = MINK1 (human) (UniProt Q8N4C8)
CASK (human) = CASK (human) (UniProt O14936)
CSK (human) = CSK (human) (UniProt P41240)
MAPK15 (human) = MAPK15 (human) (UniProt Q8TD08)
PIK3C2B (human) = PIK3C2B (human) (UniProt O00750)
CSNK1D (human) = CSNK1D (human) (UniProt P48730)
MAP2K5 (human) = MAP2K5 (human) (UniProt Q13163)
PAK2 (human) = PAK2 (human) (UniProt Q13177)
CDKL5 (human) = CDKL5 (human) (UniProt O76039)
LIMK1 (human) = LIMK1 (human) (UniProt P53667)
DMPK (human) = DMPK (human) (UniProt Q09013)
EGFR (human) = EGFR (human) (UniProt P00533)
EPHA5 (human) = EPHA5 (human) (UniProt P54756)
BTK (human) = BTK (human) (UniProt Q06187)
RPS6KA6 KD1 (human) = RPS6KA6 KD1 (human) (UniProt Q9UK32)
PRKACB (human) = PRKACB (human) (UniProt P22694)
PIP4K2C (human) = PIP4K2C (human) (UniProt Q8TBX8)
PKN2 (human) = PKN2 (human) (UniProt Q16513)
VRK2 (human) = VRK2 (human) (UniProt Q86Y07)
ZAP70 (human) = ZAP70 (human) (UniProt P43403)
IKBKE (human) = IKBKE (human) (UniProt Q14164)
TNNI3K (human) = TNNI3K (human) (UniProt Q59H18)
RPS6KA4 KD2 (human) = RPS6KA4 KD2 (human) (UniProt O75676)
[3] = molecular target: JAK3 JH1 catalytic (human) (UniProt P52333)
KIT (human) = KIT (human) (UniProt P10721)
AKT3 (human) = AKT3 (human) (UniProt Q9Y243)

Chain of PTK6 (human) (Q13882 whole entry, looked up): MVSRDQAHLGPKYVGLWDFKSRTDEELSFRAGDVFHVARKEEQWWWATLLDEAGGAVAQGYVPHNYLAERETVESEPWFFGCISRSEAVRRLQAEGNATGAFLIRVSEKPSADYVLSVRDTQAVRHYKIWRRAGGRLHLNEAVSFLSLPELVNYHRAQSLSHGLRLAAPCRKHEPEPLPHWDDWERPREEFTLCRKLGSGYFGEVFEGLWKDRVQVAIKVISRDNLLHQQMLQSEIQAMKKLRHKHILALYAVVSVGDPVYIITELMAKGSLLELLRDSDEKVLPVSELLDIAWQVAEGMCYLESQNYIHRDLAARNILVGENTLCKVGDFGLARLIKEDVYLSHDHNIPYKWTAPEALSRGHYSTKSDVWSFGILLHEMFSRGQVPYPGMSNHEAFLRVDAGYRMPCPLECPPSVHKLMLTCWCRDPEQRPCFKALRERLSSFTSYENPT
Chain of SRMS (human) (Q9H3Y6 whole entry, looked up): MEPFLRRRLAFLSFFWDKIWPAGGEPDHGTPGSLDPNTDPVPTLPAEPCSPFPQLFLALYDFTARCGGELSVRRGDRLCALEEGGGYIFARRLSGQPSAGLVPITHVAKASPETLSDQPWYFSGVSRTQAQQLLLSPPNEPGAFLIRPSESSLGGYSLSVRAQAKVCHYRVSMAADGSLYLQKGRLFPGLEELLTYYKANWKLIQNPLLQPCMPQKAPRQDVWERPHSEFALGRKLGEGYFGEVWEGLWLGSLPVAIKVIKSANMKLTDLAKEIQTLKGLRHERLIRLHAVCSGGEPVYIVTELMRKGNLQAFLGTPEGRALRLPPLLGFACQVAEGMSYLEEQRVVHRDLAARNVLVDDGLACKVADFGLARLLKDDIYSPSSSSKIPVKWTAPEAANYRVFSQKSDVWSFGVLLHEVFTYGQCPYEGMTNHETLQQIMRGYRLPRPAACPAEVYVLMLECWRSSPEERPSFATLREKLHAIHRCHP
Chain of EPHA5 (human) (P54756 whole entry, looked up): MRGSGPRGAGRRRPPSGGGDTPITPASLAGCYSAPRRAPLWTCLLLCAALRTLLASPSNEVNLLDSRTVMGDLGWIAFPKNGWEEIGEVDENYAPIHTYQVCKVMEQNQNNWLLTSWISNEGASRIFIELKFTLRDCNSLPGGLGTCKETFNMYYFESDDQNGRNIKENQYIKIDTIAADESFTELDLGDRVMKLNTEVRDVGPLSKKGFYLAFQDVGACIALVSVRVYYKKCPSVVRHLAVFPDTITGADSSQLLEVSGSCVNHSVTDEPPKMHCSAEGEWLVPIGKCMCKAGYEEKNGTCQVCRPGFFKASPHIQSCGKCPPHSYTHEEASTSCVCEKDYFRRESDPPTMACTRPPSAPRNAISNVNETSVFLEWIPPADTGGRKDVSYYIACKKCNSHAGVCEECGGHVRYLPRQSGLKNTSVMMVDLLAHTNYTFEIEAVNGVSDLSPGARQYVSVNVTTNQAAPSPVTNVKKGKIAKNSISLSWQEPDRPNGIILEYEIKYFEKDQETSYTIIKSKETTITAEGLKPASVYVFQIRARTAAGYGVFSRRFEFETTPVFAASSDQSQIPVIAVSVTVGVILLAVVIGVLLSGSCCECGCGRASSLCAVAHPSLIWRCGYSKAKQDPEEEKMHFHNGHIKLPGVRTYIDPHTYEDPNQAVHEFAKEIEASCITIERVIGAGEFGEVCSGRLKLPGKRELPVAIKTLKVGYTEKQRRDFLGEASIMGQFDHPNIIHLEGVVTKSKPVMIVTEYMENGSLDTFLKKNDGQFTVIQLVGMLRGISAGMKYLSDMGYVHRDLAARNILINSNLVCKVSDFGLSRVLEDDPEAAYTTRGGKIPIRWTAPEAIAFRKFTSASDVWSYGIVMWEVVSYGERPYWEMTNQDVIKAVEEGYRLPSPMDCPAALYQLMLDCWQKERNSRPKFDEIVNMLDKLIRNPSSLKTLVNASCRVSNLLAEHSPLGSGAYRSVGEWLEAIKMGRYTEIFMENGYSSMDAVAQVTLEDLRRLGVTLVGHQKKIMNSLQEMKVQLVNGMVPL
Chain of ZAP70 (human) (P43403 whole entry, looked up): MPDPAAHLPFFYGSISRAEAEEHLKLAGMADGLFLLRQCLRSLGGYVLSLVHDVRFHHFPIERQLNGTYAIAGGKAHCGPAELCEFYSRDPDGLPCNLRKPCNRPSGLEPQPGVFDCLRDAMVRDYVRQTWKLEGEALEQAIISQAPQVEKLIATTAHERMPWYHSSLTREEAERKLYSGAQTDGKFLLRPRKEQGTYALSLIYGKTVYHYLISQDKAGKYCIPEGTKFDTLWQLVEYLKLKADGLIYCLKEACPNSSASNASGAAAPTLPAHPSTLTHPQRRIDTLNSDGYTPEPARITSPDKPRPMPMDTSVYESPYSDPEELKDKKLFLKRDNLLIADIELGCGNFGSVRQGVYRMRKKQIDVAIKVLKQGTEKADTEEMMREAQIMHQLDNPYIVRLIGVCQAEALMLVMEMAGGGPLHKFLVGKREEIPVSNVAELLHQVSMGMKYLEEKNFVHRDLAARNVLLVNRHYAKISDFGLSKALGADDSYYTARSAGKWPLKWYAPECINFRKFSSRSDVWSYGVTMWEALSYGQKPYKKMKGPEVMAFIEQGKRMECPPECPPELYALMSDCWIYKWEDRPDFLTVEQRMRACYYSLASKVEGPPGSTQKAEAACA
Chain of PAK2 (human) (Q13177 whole entry, looked up): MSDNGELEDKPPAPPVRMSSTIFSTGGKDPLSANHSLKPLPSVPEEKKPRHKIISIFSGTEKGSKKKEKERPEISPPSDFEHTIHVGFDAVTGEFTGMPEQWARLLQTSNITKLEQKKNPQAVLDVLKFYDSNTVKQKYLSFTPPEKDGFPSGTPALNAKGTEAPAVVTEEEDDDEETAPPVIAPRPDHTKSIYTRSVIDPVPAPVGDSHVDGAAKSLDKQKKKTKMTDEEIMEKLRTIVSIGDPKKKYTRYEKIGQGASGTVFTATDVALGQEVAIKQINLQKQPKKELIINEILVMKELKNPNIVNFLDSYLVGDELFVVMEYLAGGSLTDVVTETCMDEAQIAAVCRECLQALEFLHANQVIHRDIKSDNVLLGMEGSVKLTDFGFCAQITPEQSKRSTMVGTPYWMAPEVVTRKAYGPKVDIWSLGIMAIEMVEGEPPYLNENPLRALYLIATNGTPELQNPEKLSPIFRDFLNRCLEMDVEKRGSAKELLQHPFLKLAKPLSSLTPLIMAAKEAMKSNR
Chain of LIMK1 (human) (P53667 whole entry, looked up): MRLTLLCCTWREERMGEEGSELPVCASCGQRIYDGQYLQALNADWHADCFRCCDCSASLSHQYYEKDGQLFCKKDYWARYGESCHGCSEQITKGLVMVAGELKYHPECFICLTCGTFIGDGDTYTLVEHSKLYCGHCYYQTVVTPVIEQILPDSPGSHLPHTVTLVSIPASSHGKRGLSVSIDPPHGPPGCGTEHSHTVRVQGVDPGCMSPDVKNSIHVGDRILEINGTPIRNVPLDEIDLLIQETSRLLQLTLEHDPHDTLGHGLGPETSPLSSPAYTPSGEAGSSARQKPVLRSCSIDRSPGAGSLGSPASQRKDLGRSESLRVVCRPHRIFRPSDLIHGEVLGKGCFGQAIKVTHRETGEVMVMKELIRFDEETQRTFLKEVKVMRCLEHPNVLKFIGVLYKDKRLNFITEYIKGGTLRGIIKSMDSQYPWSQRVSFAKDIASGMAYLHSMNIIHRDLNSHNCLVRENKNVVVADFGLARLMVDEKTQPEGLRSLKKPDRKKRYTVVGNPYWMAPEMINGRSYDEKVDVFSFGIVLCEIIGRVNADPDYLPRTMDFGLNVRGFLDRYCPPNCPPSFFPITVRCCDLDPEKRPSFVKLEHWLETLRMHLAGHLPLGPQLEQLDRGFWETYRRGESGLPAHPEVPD
Chain of TLK1 (human) (Q9UKI8 whole entry, looked up): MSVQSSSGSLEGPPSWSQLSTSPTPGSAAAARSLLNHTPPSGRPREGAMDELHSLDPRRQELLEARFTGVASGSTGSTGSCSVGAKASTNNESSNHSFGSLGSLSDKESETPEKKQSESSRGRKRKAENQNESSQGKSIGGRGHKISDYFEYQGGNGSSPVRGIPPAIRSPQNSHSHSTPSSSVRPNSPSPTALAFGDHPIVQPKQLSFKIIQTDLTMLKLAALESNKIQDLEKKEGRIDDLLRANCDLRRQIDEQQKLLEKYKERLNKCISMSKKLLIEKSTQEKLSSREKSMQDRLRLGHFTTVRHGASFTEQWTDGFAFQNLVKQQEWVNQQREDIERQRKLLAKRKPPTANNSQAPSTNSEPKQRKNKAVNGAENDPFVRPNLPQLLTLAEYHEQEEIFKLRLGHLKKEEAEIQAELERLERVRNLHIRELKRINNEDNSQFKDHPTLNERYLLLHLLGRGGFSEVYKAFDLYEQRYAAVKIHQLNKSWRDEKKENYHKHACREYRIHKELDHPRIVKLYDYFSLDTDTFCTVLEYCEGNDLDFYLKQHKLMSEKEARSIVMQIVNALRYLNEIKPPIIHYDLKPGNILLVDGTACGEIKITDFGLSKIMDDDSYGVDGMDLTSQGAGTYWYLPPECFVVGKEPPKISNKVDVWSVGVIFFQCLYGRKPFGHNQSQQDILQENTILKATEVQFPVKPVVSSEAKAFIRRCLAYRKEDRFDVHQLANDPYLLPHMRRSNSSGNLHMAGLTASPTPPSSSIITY
Chain of CDK15 (human) (Q96Q40 whole entry, looked up): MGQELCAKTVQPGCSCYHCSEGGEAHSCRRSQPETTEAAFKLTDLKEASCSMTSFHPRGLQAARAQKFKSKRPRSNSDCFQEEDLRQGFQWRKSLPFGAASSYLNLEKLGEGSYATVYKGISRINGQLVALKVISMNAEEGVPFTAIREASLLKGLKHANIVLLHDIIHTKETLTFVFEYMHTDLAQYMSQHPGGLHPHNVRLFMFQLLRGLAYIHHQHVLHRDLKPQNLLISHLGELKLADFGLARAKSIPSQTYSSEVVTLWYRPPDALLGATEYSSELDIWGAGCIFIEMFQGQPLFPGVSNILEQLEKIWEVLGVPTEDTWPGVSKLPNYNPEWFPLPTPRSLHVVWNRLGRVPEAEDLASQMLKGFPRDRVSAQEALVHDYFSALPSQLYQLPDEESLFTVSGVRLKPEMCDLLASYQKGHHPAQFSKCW

Structure (SMILES)	kinase still bound, per cent of control (IRAK3 (human)) [%]	kinase still bound, per cent of control (SRMS (human)) [%]	kinase still bound, per cent of control (FYN (human)) [%]	kinase still bound, per cent of control (PTK6 (human)) [%]	kinase still bound, per cent of control (ACVR2B (human)) [%]	kinase still bound, per cent of control [1] [%]	kinase still bound, per cent of control (CDK15 (human)) [%]	kinase still bound, per cent of control [2] [%]	kinase still bound, per cent of control (FGFR1 (human)) [%]	kinase still bound, per cent of control (TNK1 (human)) [%]	kinase still bound, per cent of control (WEE2 (human)) [%]	kinase still bound, per cent of control (AKT2 (human)) [%]	kinase still bound, per cent of control (MYO3B (human)) [%]	kinase still bound, per cent of control (TLK1 (human)) [%]	kinase still bound, per cent of control (MINK1 (human)) [%]	kinase still bound, per cent of control (CASK (human)) [%]	kinase still bound, per cent of control (CSK (human)) [%]	kinase still bound, per cent of control (MAPK15 (human)) [%]	kinase still bound, per cent of control (PIK3C2B (human)) [%]	kinase still bound, per cent of control (CSNK1D (human)) [%]	other results
COc1cc2ncnc(Nc3cccc(Cl)c3)c2cc1OC	30	60	81	58	54	100	75	76	87	26	81	100	100	87	37	67	62	100	7.6	54	kinase still bound, per cent of control (MAP2K5 (human)): 3.5%; kinase still bound, per cent of control (PAK2 (human)): 53%; kinase still bound, per cent of control (CDKL5 (human)): 97%; kinase still bound, per cent of control (LIMK1 (human)): 100%; kinase still bound, per cent of control (DMPK (human)): 79%; kinase still bound, per cent of control (EGFR (human)): 0.05%; kinase still bound, per cent of control (EPHA5 (human)): 55%; kinase still bound, per cent of control (BTK (human)): 70%; kinase still bound, per cent of control (RPS6KA6 KD1 (human)): 46%; kinase still bound, per cent of control (PRKACB (human)): 100%; kinase still bound, per cent of control (PIP4K2C (human)): 31%; kinase still bound, per cent of control (PKN2 (human)): 59%; kinase still bound, per cent of control (VRK2 (human)): 35%; kinase still bound, per cent of control (ZAP70 (human)): 78%; kinase still bound, per cent of control (IKBKE (human)): 55%; kinase still bound, per cent of control (TNNI3K (human)): 38%; kinase still bound, per cent of control (RPS6KA4 KD2 (human)): 91%; kinase still bound, per cent of control [3]: 38%
N#C/C(=C1/Nc2ccccc2S1)c1ccnc(NCCc2cccnc2)n1	38	2.4	100	59	98	100	86	84	98	46	100	89	100	57	45	100	88	73	19	42	kinase still bound, per cent of control (MAP2K5 (human)): 0.8%; kinase still bound, per cent of control (PAK2 (human)): 34%; kinase still bound, per cent of control (CDKL5 (human)): 82%; kinase still bound, per cent of control (LIMK1 (human)): 78%; kinase still bound, per cent of control (DMPK (human)): 100%; kinase still bound, per cent of control (EPHA5 (human)): 99%; kinase still bound, per cent of control (KIT (human)): 31%; kinase still bound, per cent of control (BTK (human)): 77%; kinase still bound, per cent of control (RPS6KA6 KD1 (human)): 28%; kinase still bound, per cent of control (PRKACB (human)): 100%; kinase still bound, per cent of control (PIP4K2C (human)): 3.7%; kinase still bound, per cent of control (PKN2 (human)): 100%; kinase still bound, per cent of control (VRK2 (human)): 100%; kinase still bound, per cent of control (ZAP70 (human)): 100%; kinase still bound, per cent of control (AKT3 (human)): 100%; kinase still bound, per cent of control (IKBKE (human)): 100%; kinase still bound, per cent of control (TNNI3K (human)): 93%; kinase still bound, per cent of control (RPS6KA4 KD2 (human)): 57%; kinase still bound, per cent of control [3]: 10%

Reference: the kinase profiling compilation of Christmann-Franck et al. (2016)
